Data as given in BigSolDB 2.1.

Details: in water

**Q.** With `CCCCn1cc[n+](C)c1.F[P-](F)(F)(F)(F)F` as the molecule, how does the solubility (mole fraction) (278.75 K) read?
**A.** 0.0009

**Q.** What about the solubility (mole fraction) (283.55 K) of the same molecule?
**A.** 0.00102

**Q.** And the solubility (mole fraction) (289.55 K)?
**A.** 0.00108

**Q.** And the solubility (mole fraction) (295.95 K)?
**A.** 0.00126

**Q.** What about the solubility (mole fraction) (302.25 K) of the same molecule?
**A.** 0.00146

**Q.** What about the solubility (mole fraction) (310.35 K) of the same molecule?
**A.** 0.00171

**Q.** What about the solubility (mole fraction) (314.95 K) of the same molecule?
**A.** 0.00195

**Q.** What about the solubility (mole fraction) (319.65 K) of the same molecule?
**A.** 0.00218

**Q.** And the solubility (mole fraction) (326.65 K)?
**A.** 0.00244

**Q.** And the solubility (mole fraction) (333.25 K)?
**A.** 0.0029

**Q.** And the solubility (mole fraction) (338.35 K)?
**A.** 0.00339

**Q.** And the solubility (mole fraction) (344.35 K)?
**A.** 0.00371

**Q.** And the solubility (mole fraction) (350.85 K)?
**A.** 0.00444

**Q.** And the solubility (mole fraction) (357.35 K)?
**A.** 0.00532

**Q.** And the solubility (mole fraction) (362.15 K)?
**A.** 0.00628

**Q.** For `CCCCCCCCn1cc[n+](C)c1.F[P-](F)(F)(F)(F)F`, which solubility (mole fraction) (285.85 K) is on record?
**A.** 9.4e-05

**Q.** What about the solubility (mole fraction) (293.95 K) of the same molecule?
**A.** 0.000116

**Q.** What about the solubility (mole fraction) (299.05 K) of the same molecule?
**A.** 0.000128

**Q.** What about the solubility (mole fraction) (307.35 K) of the same molecule?
**A.** 0.000154

**Q.** And the solubility (mole fraction) (311.35 K)?
**A.** 0.000169

**Q.** And the solubility (mole fraction) (318.15 K)?
**A.** 0.000197

**Q.** And the solubility (mole fraction) (324.75 K)?
**A.** 0.000216

**Q.** And the solubility (mole fraction) (328.15 K)?
**A.** 0.000239

**Q.** What about the solubility (mole fraction) (331.15 K) of the same molecule?
**A.** 0.000257

**Q.** And the solubility (mole fraction) (338.85 K)?
**A.** 0.000304

**Q.** And the solubility (mole fraction) (343.35 K)?
**A.** 0.000345

**Q.** What about the solubility (mole fraction) (348.45 K) of the same molecule?
**A.** 0.000383

**Q.** And the solubility (mole fraction) (353.75 K)?
**A.** 0.000445

**Q.** And the solubility (mole fraction) (358.55 K)?
**A.** 0.000505

**Q.** And the solubility (mole fraction) (364.55 K)?
**A.** 0.000574

**Q.** What does the source list for `CCCCCCn1cc[n+](C)c1.F[P-](F)(F)(F)(F)F`?
**A.** solubility (mole fraction) (286.45 K): 0.000326; solubility (mole fraction) (296.65 K): 0.00041; solubility (mole fraction) (302.65 K): 0.000448; solubility (mole fraction) (307.85 K): 0.000503; solubility (mole fraction) (312.95 K): 0.000545; solubility (mole fraction) (319.35 K): 0.00066; solubility (mole fraction) (326.35 K): 0.000734; solubility (mole fraction) (331.75 K): 0.000852; solubility (mole fraction) (336.15 K): 0.000919; solubility (mole fraction) (340.25 K): 0.00105; solubility (mole fraction) (345.85 K): 0.00113; solubility (mole fraction) (350.75 K): 0.00128; solubility (mole fraction) (355.25 K): 0.00144; solubility (mole fraction) (359.95 K): 0.00157; solubility (mole fraction) (363.05 K): 0.0018
